Laboratory results reported in US6618679B2, “Methods for analysis of gene expression” (priority 2000, dated 2003).

Tested on: Hep G2 (human hepatocellular carcinoma)
Assay: Non-lethal concentration range for chemical exposure of Hep G2 cells
Assay type: cell-based
Protocol: The hepatocyte cell line, Hep G2 (human hepatocellular carcinoma, obtained from the American Type Culture Collection, Rockville Md., ATCC#HB-8065), was used to evaluate the effects of various chemicals on expression of a set of genes known to be involved in cellular toxicological responses. The cells were routinely maintained in T75 flasks in Eagle's MEM medium (with non-essential amino acids, sodium pyruvate, and Earle's salts) and 10% fetal bovine serum at 37° C. in a humidified atmosphere of 5% CO2. The chemicals used in exposure experiments included cadmium chloride (CdCl2) and methyl methane sulfonate (MMS). CdCl2 is a strong inducer of metallothionein, a metal-binding protein, and is known to be carcinogenic and capable of interfering with DNA repair. MMS is an alkylating agent that induces DNA damage. Dilutions of these compounds were prepared from concentrated stocks obtained from Aldrich Chemical Company (Milwaukee, Wis.). Water was used as the solvent control in dosing studies. […] These concentration ranges were empirically determined to not be lethal to cells for the duration of the exposure period. […] Cell number was quantitated using a dye incorporation assay, CyQUANT from Molecular Probes (Eugene, Oreg.).

SMILES | lethality to cells for the duration of the exposure period (final concentrations 0.5 mM to 2 mM MMS, 3 hours exposure) | lethality to cells for the duration of the exposure period (final concentrations 10^-4M to 10^-6M CdCl2, 3 hours exposure)
COS(C)(=O)=O [MMS, methyl methane sulfonate] | not be lethal | –
[Cl][Cd][Cl] [CdCl2, cadmium chloride] | – | not be lethal
